{"source": "patent US7145013B2", "about": "“3-thia-4-arylquinolin-2-one derivatives” (Bristol-Myers Squibb Company, priority 2003, dated 2006)", "key": {"[1]": {"system": "cloned mammalian (mSlo or hSlo) BK channel expressed in Xenopus oocytes", "test": "Assay for BK channel openers: two-electrode voltage clamp, BK-mediated outward current in Xenopus oocytes", "assay_type": "cell-based", "settings": "percent increase over BK current in controls, voltage step to +140 mV, IBTX-sensitive current", "description": "The ability of the compounds of the invention to open BK channels and increase whole-cell outward (K^+) BK-mediated currents was assessed under voltage-clamp conditions by determining their ability to increase cloned mammalian (mSlo or hSlo) BK-mediated outward current heterologously expressed in Xenopus oocytes [Butler, A., et al., Science 1993, 261, 221–224; Dworetzky, S. I., et al., Mol. Brain Res. 1994, 27, 189–193; Gribkoff, V. K., et al., Mol. Pharmacol. 1996, 50, 206–217]. The two BK constructs employed represent nearly structurally identical homologous proteins, and have proven to be pharmacologically indistinguishable in our tests. To isolate BK current from native (background, non-BK) current, the specific and potent BK channel-blocking toxin iberiotoxin (IBTX) [Galvez, A., et al., J. Biol. Chem. 1990, 265, 11083–11090] was employed at a supramaximal concentration, e.g., 50–100 nanomolar (“nM”). The relative contribution of BK channel-mediated current to total outward current was determined by subtraction of the current remaining in the presence of IBTX (non-BK current) from the current profiles obtained in all other experimental conditions (control, drug, and wash) [Gribkoff, V. K. et al., Mol. Pharmacol. 1996, 50, 206–217]. […] All compounds were tested in 5–10 oocytes and are reported at the indicated concentration of 20 micromolar (“μM”) (or as otherwise indicated); the effect of the selected compounds of the invention on BK current was expressed as the percent of control IBTX-sensitive current at a single transmembrane voltage (+140 mV) and is listed in Table 1. Recordings were accomplished using standard two-electrode voltage clamp techniques [Stuhmer, W., et al., Methods in Enzymology, 1992, 207, 319–339]; voltage-clamp protocols consisted of 500–750 milliseconds (“ms”) duration step depolarizations, from a holding potential of −60 mV, to a final voltage up to +140 mV in 20 mV steps. The experimental media (modified Barth's solution) consisted of millimolar (“mM”): NaCl (88), NaHCO3 (2.4), KCl (1.0), HEPES (10), MgSO4 (0.82), Ca(NO3)2 (0.33), CaCl2 (0.41); pH 7.5."}, "[2]": {"system": "rat small intestine (ileum) segments", "test": "Rat small intestine (ileum) strip relaxation", "settings": "integral of nifedipine-sensitive force, pre- vs 30 min post-compound", "excerpt": "The ability of the compounds of the invention to relax rat small intestine tissue as a model for the treatment of irritable bowel syndrome is described as follows. Male rats (Harlan, Sprague Dawley, 250–350 g) were sacrificed by decapitation. A portion of small intestine (ileum) was removed and the attached connective tissues and intestinal contents removed. The ileum was cut into segments of ≦1 cm in length. The segments were mounted longitudinally between fixed hooks in organ baths containing warm (37° C.) physiological salt solution (composition in mM: NaCl 118.4, KCl 4.7, KH2PO4 1.2, MgSO4 1.2, CaCl2 1.8, Glucose 10.1, NaHCO3 25; gassed with 95% O2/5% CO2, pH 7.4). A stable tension of ˜1.5 g was maintained in the tissue segments during the equilibration period of 45 minutes. Changes in muscle tension were measured with isometric force transducers (Grass, FT-03C) and recorded using AcqKnowledge data acquisition system (AcqKnowledge for MP100WS, Biopac Systems Inc., Goleta, Calif.). Compound or vehicle was added in the baths for 30 minutes. […] The effects of compounds or vehicle on force was determined by measuring the integral of nifedipine-sensitive force (including resting tone and spontaneous contractions) pre- and 30 min post-compound (or vehicle) addition. Results are expressed as the percentage inhibition of force. […]"}}, "data": [{"smiles": "CCS(=O)(=O)Nc1ccc(Sc2c(-c3cc(Cl)ccc3O)c3cc(C(F)(F)F)ccc3[nH]c2=O)cc1", "note": "[Example 3, N-[4-[[4-(5-Chloro-2-hydroxyphenyl)-1,2-dihydro-2-oxo-6-(trifluoromethyl)-3-quinolinyl]thio]phenyl]ethanesulfonamide]", "values": [{"measurement": "% MaxiK opening", "setting": "[1]; at 20 μM", "result": 296, "unit": "%"}]}, {"smiles": "CN(C)S(=O)(=O)Nc1ccc(Sc2c(-c3cc(Cl)ccc3O)c3cc(C(F)(F)F)ccc3n(C)c2=O)cc1", "note": "[Example 9, N′-[4-[[4-(5-chloro-2-hydroxyphenyl)-1,2-dihydro-1-methyl-2-oxo-6-(trifluoromethyl)-3-quinolinyl]thio]phenyl]-N,N-dimethylsulfamide]", "values": [{"measurement": "% MaxiK opening", "setting": "[1]; at 1 μM", "result": "114^⋄ %"}]}, {"smiles": "COc1ccc(Cl)cc1-c1c(Sc2ccc(NS(=O)(=O)C(F)(F)F)cc2)c(=O)[nH]c2ccc(C(F)(F)F)cc12", "note": "[Example 4, N-[4-[[4-(5-chloro-2-methoxyphenyl)-1,2-dihydro-2-oxo-6-(trifluoromethyl)-3-quinolinyl]thio]phenyl]-1,1,1-trifluoromethanesulfonamide]", "values": [{"measurement": "% MaxiK opening", "setting": "[1]; at 20 μM", "result": 235, "unit": "%"}]}, {"smiles": "Nc1ccc(Sc2c(-c3cc(Cl)ccc3O)c3cc(C(F)(F)F)ccc3[nH]c2=O)cc1", "note": "[Example 1, 3-[(4-Aminophenyl)thio]-4-(5-chloro-2-hydroxyphenyl)-6-(trifluoromethyl)-2(1H)-quinolinone]", "values": [{"measurement": "% MaxiK opening", "setting": "[1]; at 20 μM", "result": 392, "unit": "%"}, {"measurement": "% Inhibition of force (RSI strips)", "setting": "[2]", "result": 10, "unit": "%"}]}, {"smiles": "CCCS(=O)(=O)Nc1ccc(Sc2c(-c3cc(Cl)ccc3O)c3cc(C(F)(F)F)ccc3[nH]c2=O)cc1", "note": "[Example 5, N-[4-[[4-(5-chloro-2-hydroxyphenyl)-1,2-dihydro-2-oxo-6-(trifluoromethyl)-3-quinolinyl]thio]phenyl]-1-propanesulfonamide]", "values": [{"measurement": "% MaxiK opening", "setting": "[1]; at 20 μM", "result": 255, "unit": "%"}]}, {"smiles": "CN(C)S(=O)(=O)Nc1ccc(Sc2c(-c3cc(Cl)ccc3O)c3cc(C(F)(F)F)ccc3[nH]c2=O)cc1", "note": "[Example 6, N′-[4-[[4-(5-chloro-2-hydroxyphenyl)-1,2-dihydro-2-oxo-6-(trifluoromethyl)-3-quinolinyl]thio]phenyl]-N,N-dimethylsulfamide]", "values": [{"measurement": "% MaxiK opening", "setting": "[1]; at 1 μM", "result": "222^⋄ %"}]}, {"smiles": "Cn1c(=O)c(Sc2ccc(N)cc2)c(-c2cc(Cl)ccc2O)c2cc(C(F)(F)F)ccc21", "note": "[Example 2, 3-[(4-Aminophenyl)thio]-4-(5-chloro-2-hydroxyphenyl)-1-methyl-6-(trifluoromethyl)-2(1H)-quinolinone]", "values": [{"measurement": "% MaxiK opening", "setting": "[1]; at 20 μM", "result": 144, "unit": "%"}]}, {"smiles": "O=c1[nH]c2ccc(C(F)(F)F)cc2c(-c2cc(Cl)ccc2O)c1Sc1ccc(NS(=O)(=O)C(F)(F)F)cc1", "note": "[Example 7, N-[4-[[4-(5-chloro-2-hydroxyphenyl)-1,2-dihydro-2-oxo-6-(trifluoromethyl)-3-quinolinyl]thio]phenyl]-1,1,1-trifluoromethanesulfonamide]", "values": [{"measurement": "% MaxiK opening", "setting": "[1]; at 20 μM", "result": 277, "unit": "%"}, {"measurement": "% Inhibition of force (RSI strips)", "setting": "[2]", "result": 51, "unit": "%"}]}, {"smiles": "O=c1[nH]c2ccc(C(F)(F)F)cc2c(-c2cc(Cl)ccc2O)c1Sc1ccc(NS(=O)(=O)CC(F)(F)F)cc1", "note": "[Example 8, N-[4-[[4-(5-chloro-2-hydroxyphenyl)-1,2-dihydro-2-oxo-6-(trifluoromethyl)-3-quinolinyl]thio]phenyl]-2,2,2-trifluoroethanesulfonamide]", "values": [{"measurement": "% MaxiK opening", "setting": "[1]; at 20 μM", "result": 170, "unit": "%"}]}]}
